{"source": "paper PMC6979384", "about": "“Characterization of the plant homeodomain (PHD) reader family for their histone tail interactions” (Epigenetics & Chromatin, 2020)", "test_in_all_cases": "Histone peptide microarray", "format_in_all_cases": "binding, human", "key": {"MORC3 (CW)": {"tested_on": "MORC3 (CW)", "conditions": "sheet \"Array Heatmap\"; GST-tagged MORC3 (CW); arrays performed twice, total replicate number n = 4", "how_it_was_run": "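Each reader, produced as a GST fusion and purified, was tested at 0.5 μM on synthetic histone peptides (293 in total) carrying single or combinatorial marks. Intensities averaged over four replicates.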"}, "PHF21A": {"tested_on": "PHF21A", "conditions": "sheet \"Array Heatmap\"; GST-tagged PHF21A; arrays performed twice, total replicate number n = 4", "how_it_was_run": "(§1)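 GST-PHD reader, 0.5 μM, probed on 293-peptide histone array (single/combinatorial PTMs); optimized array protocol; signal = mean ± SD, n = 4.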"}, "RAG2": {"tested_on": "RAG2", "conditions": "sheet \"Array Heatmap\"; GST-tagged RAG2; arrays performed twice, total replicate number n = 4", "how_it_was_run": "as §1"}, "PHF2": {"tested_on": "PHF2", "conditions": "sheet \"Array Heatmap\"; GST-tagged PHF2; arrays performed twice, total replicate number n = 4", "how_it_was_run": "as §1"}, "BPTF (PB)": {"tested_on": "BPTF (PB)", "conditions": "sheet \"Array Heatmap\"; GST-tagged BPTF (PB); arrays performed twice, total replicate number n = 4", "how_it_was_run": "as §1"}, "KDM4C (TTP)": {"tested_on": "KDM4C (TTP)", "conditions": "sheet \"Array Heatmap\"; GST-tagged KDM4C (TTP); arrays performed twice, total replicate number n = 4", "how_it_was_run": "as §1"}, "KDM7A": {"tested_on": "KDM7A", "conditions": "sheet \"Array Heatmap\"; GST-tagged KDM7A; arrays performed twice, total replicate number n = 4", "how_it_was_run": "as §1"}, "CHD5 (PPCC)": {"tested_on": "CHD5 (PPCC)", "conditions": "sheet \"Array Heatmap\"; GST-tagged CHD5 (PPCC); arrays performed twice, total replicate number n = 4", "how_it_was_run": "as §1"}, "DIDO1": {"tested_on": "DIDO1", "conditions": "sheet \"Array Heatmap\"; GST-tagged DIDO1; arrays performed twice, total replicate number n = 4", "how_it_was_run": "as §1"}, "PHF8": {"tested_on": "PHF8", "conditions": "sheet \"Array Heatmap\"; GST-tagged PHF8; arrays performed twice, total replicate number n = 4", "how_it_was_run": "as §1"}, "ING3": {"tested_on": "ING3", "conditions": "sheet \"Array Heatmap\"; GST-tagged ING3; arrays performed twice, total replicate number n = 4", "how_it_was_run": "as §1"}, "KDM5B (3)": {"tested_on": "KDM5B (3)", "conditions": "sheet \"Array Heatmap\"; GST-tagged KDM5B (3); arrays performed twice, total replicate number n = 4", "how_it_was_run": "as §1"}, "SP140L": {"tested_on": "SP140L", "conditions": "sheet \"Array Heatmap\"; GST-tagged SP140L; arrays performed twice, total replicate number n = 4", "how_it_was_run": "as §1"}, "PHF13": {"tested_on": "PHF13", "conditions": "sheet \"Array Heatmap\"; GST-tagged PHF13; arrays performed twice, total replicate number n = 4", "how_it_was_run": "as §1"}, "KDM5B (1)": {"tested_on": "KDM5B (1)", "conditions": "sheet \"Array Heatmap\"; GST-tagged KDM5B (1); arrays performed twice, total replicate number n = 4", "how_it_was_run": "as §1"}, "TAF3": {"tested_on": "TAF3", "conditions": "sheet \"Array Heatmap\"; GST-tagged TAF3; arrays performed twice, total replicate number n = 4", "how_it_was_run": "as §1"}, "MLL5": {"tested_on": "MLL5", "conditions": "sheet \"Array Heatmap\"; GST-tagged MLL5; arrays performed twice, total replicate number n = 4", "how_it_was_run": "as §1"}, "CHD4 (PPCC)": {"tested_on": "CHD4 (PPCC)", "conditions": "sheet \"Array Heatmap\"; GST-tagged CHD4 (PPCC); arrays performed twice, total replicate number n = 4", "how_it_was_run": "as §1"}, "BAZ2B": {"tested_on": "BAZ2B", "conditions": "sheet \"Array Heatmap\"; GST-tagged BAZ2B; arrays performed twice, total replicate number n = 4", "how_it_was_run": "as §1"}, "ING1": {"tested_on": "ING1", "conditions": "sheet \"Array Heatmap\"; GST-tagged ING1; arrays performed twice, total replicate number n = 4", "how_it_was_run": "as §1"}, "KDM5A (1)": {"tested_on": "KDM5A (1)", "conditions": "sheet \"Array Heatmap\"; GST-tagged KDM5A (1); arrays performed twice, total replicate number n = 4", "how_it_was_run": "as §1"}, "ING4": {"tested_on": "ING4", "conditions": "sheet \"Array Heatmap\"; GST-tagged ING4; arrays performed twice, total replicate number n = 4", "how_it_was_run": "as §1"}, "PHRF1 (RP)": {"tested_on": "PHRF1 (RP)", "conditions": "sheet \"Array Heatmap\"; GST-tagged PHRF1 (RP); arrays performed twice, total replicate number n = 4", "how_it_was_run": "as §1"}, "DPF2 (PPC2W2)": {"tested_on": "DPF2 (PPC2W2)", "conditions": "sheet \"Array Heatmap\"; GST-tagged DPF2 (PPC2W2); arrays performed twice, total replicate number n = 4", "how_it_was_run": "as §1"}, "ING2": {"tested_on": "ING2", "conditions": "sheet \"Array Heatmap\"; GST-tagged ING2; arrays performed twice, total replicate number n = 4", "how_it_was_run": "as §1"}, "KDM5A (3)": {"tested_on": "KDM5A (3)", "conditions": "sheet \"Array Heatmap\"; GST-tagged KDM5A (3); arrays performed twice, total replicate number n = 4", "how_it_was_run": "as §1"}, "TRIM66 (PB)": {"tested_on": "TRIM66 (PB)", "conditions": "sheet \"Array Heatmap\"; GST-tagged TRIM66 (PB); arrays performed twice, total replicate number n = 4", "how_it_was_run": "as §1"}, "ING5": {"tested_on": "ING5", "conditions": "sheet \"Array Heatmap\"; GST-tagged ING5; arrays performed twice, total replicate number n = 4", "how_it_was_run": "as §1"}, "CHD5 (PCC)": {"tested_on": "CHD5 (PCC)", "conditions": "sheet \"Array Heatmap\"; GST-tagged CHD5 (PCC); arrays performed twice, total replicate number n = 4", "how_it_was_run": "as §1"}, "AIRE (PP)": {"tested_on": "AIRE (PP)", "conditions": "sheet \"Array Heatmap\"; GST-tagged AIRE (PP); arrays performed twice, total replicate number n = 4", "how_it_was_run": "as §1"}, "PHF23": {"tested_on": "PHF23", "conditions": "sheet \"Array Heatmap\"; GST-tagged PHF23; arrays performed twice, total replicate number n = 4", "how_it_was_run": "as §1"}}}
{"substance": "H3.3K27me3: H3.3 15-34 [Peptide H3.3K27me3]", "values": [{"measurement": "Array Heatmap signal, MORC3 (CW)", "setting": "MORC3 (CW)", "value": 0.4234}, {"measurement": "Array Heatmap signal, PHF21A", "setting": "PHF21A", "value": 0.5192}, {"measurement": "Array Heatmap signal, RAG2", "setting": "RAG2", "value": 0.2705}, {"measurement": "Array Heatmap signal, PHF2", "setting": "PHF2", "value": 0.5285}, {"measurement": "Array Heatmap signal, BPTF (PB)", "setting": "BPTF (PB)", "value": 0.4048}, {"measurement": "Array Heatmap signal, KDM4C (TTP)", "setting": "KDM4C (TTP)", "value": 0.5632}, {"measurement": "Array Heatmap signal, KDM7A", "setting": "KDM7A", "value": 0.3849}, {"measurement": "Array Heatmap signal, CHD5 (PPCC)", "setting": "CHD5 (PPCC)", "value": 0.6383}, {"measurement": "Array Heatmap signal, DIDO1", "setting": "DIDO1", "value": 0.7249}, {"measurement": "Array Heatmap signal, PHF8", "setting": "PHF8", "value": 0.4126}, {"measurement": "Array Heatmap signal, ING3", "setting": "ING3", "value": 0.5349}, {"measurement": "Array Heatmap signal, KDM5B (3)", "setting": "KDM5B (3)", "value": 0.5372}, {"measurement": "Array Heatmap signal, SP140L", "setting": "SP140L", "value": 0.3923}, {"measurement": "Array Heatmap signal, PHF13", "setting": "PHF13", "value": 0.7006}, {"measurement": "Array Heatmap signal, KDM5B (1)", "setting": "KDM5B (1)", "value": 0.6871}, {"measurement": "Array Heatmap signal, TAF3", "setting": "TAF3", "value": 0.2913}, {"measurement": "Array Heatmap signal, MLL5", "setting": "MLL5", "value": 0.5722}, {"measurement": "Array Heatmap signal, CHD4 (PPCC)", "setting": "CHD4 (PPCC)", "value": 0.5987}, {"measurement": "Array Heatmap signal, BAZ2B", "setting": "BAZ2B", "value": 0.5914}, {"measurement": "Array Heatmap signal, ING1", "setting": "ING1", "value": 0.5843}, {"measurement": "Array Heatmap signal, KDM5A (1)", "setting": "KDM5A (1)", "value": 0.5261}, {"measurement": "Array Heatmap signal, ING4", "setting": "ING4", "value": 0.5176}, {"measurement": "Array Heatmap signal, PHRF1 (RP)", "setting": "PHRF1 (RP)", "value": 0.5177}, {"measurement": "Array Heatmap signal, DPF2 (PPC2W2)", "setting": "DPF2 (PPC2W2)", "value": 0.7311}, {"measurement": "Array Heatmap signal, ING2", "setting": "ING2", "value": 0.6109}, {"measurement": "Array Heatmap signal, KDM5A (3)", "setting": "KDM5A (3)", "value": 0.4949}, {"measurement": "Array Heatmap signal, TRIM66 (PB)", "setting": "TRIM66 (PB)", "value": 0.6617}, {"measurement": "Array Heatmap signal, ING5", "setting": "ING5", "value": 0.4224}, {"measurement": "Array Heatmap signal, CHD5 (PCC)", "setting": "CHD5 (PCC)", "value": 0.8198}, {"measurement": "Array Heatmap signal, AIRE (PP)", "setting": "AIRE (PP)", "value": 0.536}, {"measurement": "Array Heatmap signal, PHF23", "setting": "PHF23", "value": 0.6091}]}
